The values that follow come from PMC9737391, “Trifluoromethylcinnamanilide Michael Acceptors for Treatment of Resistant Bacterial Infections” (International Journal of Molecular Sciences, 2022).

Converted amounts (≈) assume the structure as drawn.

Data set [1] is described as follows: Lipophilicity determination by RP-HPLC. It is filed as physicochemical. The conditions noted are these: for log k: RP-HPLC, logarithm of capacity factor k. As for the experimental part: It is evident from the graphs in Figure 1 that the correlation coefficients of the dependences of log k/log D6.5/log D7.4 have a value of r = 0.999 (n = 32), which means that the investigated compounds behave insignificantly differently in aqueous media with different pH. Moreover, lipophilicity was calculated as log P and Clog P using two prediction programs. […] Therefore, only log P values predicted by ACD/Percepta can be used for correlations with experimental values. These matches are shown in the graphs in Figure 2, and according to the correlation coefficient r~0.940 (n = 32), it can be argued that even the predicted lipophilicity values correlate with the experimentally measured ones. However, the largest variations were observed (no difference for series 1, 2) for compounds substituted with 2-Cl, 2-CF3, 2,5-Cl, 4-F, 4-CF3, and 3,5-F, 3,5-Cl. These are mainly substituents capable of forming hydrogen and other types of non-bonding interactions both with the surrounding environment and within the molecule. Overall, series 1 (3-CF3) is less lipophilic than series 2 (4-CF3), but the differences in the experimental data are insignificant. Unsubstituted derivatives 1a/2a are the least lipophilic compounds, while derivatives 1o/2o (3,5-Cl) and 1p/2p (3,5-CF3) are the most lipophilic compounds.
Experimental determination of lipophilicity values (log k, log D6.5, and log D7.4) was performed under the same conditions and on the same device as described by Strharsky et al..

For data set [2], the system named is Staphylococcus aureus ATCC 29213. The data set can be described thus: MIC, microtitration broth method. Type of data set: cell-based. The conditions noted are these: ATCC29213, S. aureus ATCC 29213.
Data set [3] has as its system methicillin-resistant S. aureus SA 3202 (MRSA1). The data set is described as follows: MIC, microtitration broth method. It is filed as cell-based. The note with it: Staphylococcus aureus; MRSA SA 3202.
Data set [4] has as its system methicillin-resistant S. aureus SA 630 (MRSA2). The data set is described as follows: MIC, microtitration broth method. Type of data set: cell-based. The note with it: Staphylococcus aureus; MRSA SA 630.
The test system of data set [5] is methicillin-resistant S. aureus 63718 (MRSA3). The data set can be described thus: MIC, microtitration broth method. The note with it: Staphylococcus aureus; MRSA 63718. It is filed as cell-based.
The subject of data set [6] is M. smegmatis ATCC 700084. The data set can be described thus: In vitro antimycobacterial evaluation (MIC). Type of data set: cell-based, Mycobacterium smegmatis. The conditions noted are these: Mycolicibacterium smegmatis, ATCC700084.
Data set [7] deals with Staphylococcus aureus ATCC 29213. The data set can be described thus: MBC, agar aliquot subculture method. It is filed as cell-based. The note with it: ATCC29213, S. aureus ATCC 29213.
The subject of data set [8] is methicillin-resistant S. aureus SA 3202 (MRSA1). The data set can be described thus: MBC, agar aliquot subculture method. The note with it: Staphylococcus aureus; MRSA SA 3202. It is filed as cell-based.
The subject of data set [9] is methicillin-resistant S. aureus SA 630 (MRSA2). The data set is described as follows: MBC, agar aliquot subculture method. It is filed as cell-based. The note with it: Staphylococcus aureus; MRSA SA 630.
For data set [10], the system named is methicillin-resistant S. aureus 63718 (MRSA3). The data set is described as follows: MBC, agar aliquot subculture method. It is filed as cell-based. The conditions noted are these: Staphylococcus aureus; MRSA 63718.
In data set [11] the test system is human monocytic leukemia cell line THP-1. The data set is described as follows: In vitro cell viability (cytotoxicity screening). It is filed as cell-based. The note with it: 24 h, medium with 10% FBS, ± SD, n = 6. As for the experimental part:
The investigated anilides can be divided into three groups. […] Higher concentrations (than 10 or 30 µM) were not possible to evaluate due to precipitation of the tested compounds in water medium. Based on all these observations, it can be concluded that the high antimicrobial activity of 3,5-CF3-substituted compounds is associated with significant cytotoxic effect against eukaryotic cells. On the other hand, the other still effective compounds, especially agents 1j and 1o, have an insignificant toxic effect, which makes them interesting for further study.
Human monocytic leukemia THP-1 cells obtained from the European Collection of Cell Cultures (ECACC, Salisbury, UK) were used for in vitro antiproliferative assays. A recently described procedure was used.

Data set [12] has as its system S. aureus ATCC 29213. The data set is described as follows: MTT assay, inhibition of bacterial respiration. It is filed as cell-based, Staphylococcus aureus. An excerpt: The MTT assay can be used to assess cell growth by measuring respiration. Respiratory activity of bacterial cells (which is finally reflected in their viability) less than 70% after exposure to the MIC values for each tested compound is considered as a positive result of this assay. This low level of cell oxidative metabolism indicates inhibition of cell growth by inhibition of respiration. The lowest multiples of MIC values that achieved more than 70% inhibition of S. aureus ATCC 29213 viability (%) are shown in Table 3.
The percent inhibition of respiration of S. aureus ATCC 29213 was determined through the MTT assay. The assay was performed as described recently. The percent viability is calculated through the comparison of a measured value and that of the uninhibited control: % viability = OD570E/OD570P × 100, where OD570E is the reading from the compound-exposed cells, while OD570P is the reading from the uninhibited cells (positive control). Cytotoxic potential is determined by a percent viability of <70% [46, 47].

On to “(2E)-N-Phenyl-3-[3-(trifluoromethyl)phenyl]prop-2-enamide [2a]”, for which the log k in data set [1] worked out at 0.5351. Besides, the “log D6.5” value in data set [1] (pH 6.5) is given as 0.4751. Further, in data set [1] (pH 7.4), the “log D7.4” value turned out to be 0.4684.
Molecule `O=C(/C=C/c1cccc(C(F)(F)F)c1)Nc1ccc(F)cc1F` [1k, (2E)-N-(2,4-Difluorophenyl)-3-[3-(trifluoromethyl)phenyl]prop-2-enamide] had a melting point of 143 to 145 °C. This molecule displayed a log k in data set [1] of 0.5906.
Consider `O=C(/C=C/c1cccc(C(F)(F)F)c1)Nc1ccc(F)cc1` [1d, (2E)-N-(4-Fluorophenyl)-3-[3-(trifluoromethyl)phenyl]prop-2-enamide], for which the log k in data set [1] came to 0.5760.
The molecule `O=C(/C=C/c1cccc(C(F)(F)F)c1)Nc1ccccc1C(F)(F)F` [1h, (2E)-N-[2-(Trifluoromethyl)phenyl]-3-[3-(trifluoromethyl)phenyl]prop-2-enamide] had a melting point of 111 to 113 °C. The same molecule yielded a log k in data set [1] of 0.5710.
For the molecule `O=C(/C=C/c1cccc(C(F)(F)F)c1)Nc1cc(Cl)ccc1Cl` [1n, (2E)-N-(2,5-Dichlorophenyl)-3-[3-(trifluoromethyl)phenyl]prop-2-enamide], the melting point fell in the range of 145 to 147 °C. Moreover, the log k in data set [1] turned out to be 0.9612.
`O=C(/C=C/c1cccc(C(F)(F)F)c1)Nc1cc(F)cc(F)c1` [1l, (2E)-N-(3,5-Difluorophenyl)-3-[3-(trifluoromethyl)phenyl]prop-2-enamide] came in with a melting point of 131 to 133 °C. In data set [1], this molecule came in with a log k of 0.8186.
The matching figures for `O=C(/C=C/c1cccc(C(F)(F)F)c1)Nc1ccc(Cl)cc1Cl` [1m, (2E)-N-(2,4-Dichlorophenyl)-3-[3-(trifluoromethyl)phenyl]prop-2-enamide]: 134 to 136 °C and 0.9782.
In turn, `O=C(/C=C/c1ccc(C(F)(F)F)cc1)Nc1cc(F)cc(F)c1` [2l, (2E)-N-(3,5-Difluorophenyl)-3-[4-(trifluoromethyl)phenyl]prop-2-enamide] gave a melting point of 188 to 190 °C. The molecule further registered a log k in [1] of 0.8253.
For `O=C(/C=C/c1ccc(C(F)(F)F)cc1)Nc1cc(Cl)ccc1Cl` [2n, (2E)-N-(2,5-Dichlorophenyl)-3-[4-(trifluoromethyl)phenyl]prop-2-enamide], the melting point is 180 to 182 °C. The same molecule came in with a log k in data set [1] of 0.9583.
`O=C(/C=C/c1cccc(C(F)(F)F)c1)Nc1ccccc1F` [1b, (2E)-N-(2-Fluorophenyl)-3-[3-(trifluoromethyl)phenyl]prop-2-enamide]: the melting point lay within 115 to 117 °C. In data set [1], this molecule displayed a log k of 0.5375.
In turn, `O=C(/C=C/c1ccc(C(F)(F)F)cc1)Nc1ccccc1Cl` [2e, (2E)-N-(2-Chlorophenyl)-3-[4-(trifluoromethyl)phenyl]prop-2-enamide] yielded a melting point of 171 to 173 °C. In addition, the log k in [1] is recorded as 0.6614.
`O=C(/C=C/c1ccc(C(F)(F)F)cc1)Nc1cc(Cl)cc(Cl)c1` [2o, (2E)-N-(3,5-Dichlorophenyl)-3-[4-(trifluoromethyl)phenyl]prop-2-enamide] gave a melting point of 177 to 179 °C. In [1], this molecule returned a log k of 1.2024.
Taken in the same sequence, the figures for `O=C(/C=C/c1ccc(C(F)(F)F)cc1)Nc1ccccc1C(F)(F)F` [2h, (2E)-N-[2-(Trifluoromethyl)phenyl]-3-[4-(trifluoromethyl)phenyl]prop-2-enamide] were 189 to 191 °C and 0.5798.
`O=C(/C=C/c1ccc(C(F)(F)F)cc1)Nc1cccc(F)c1` [2c, (2E)-N-(3-Fluorophenyl)-3-[4-(trifluoromethyl)phenyl]prop-2-enamide] gave a melting point of 146 to 148 °C. Further, in data set [1], the log k is recorded as 0.6462.
The matching figures for `O=C(/C=C/c1ccc(C(F)(F)F)cc1)Nc1ccc(Cl)cc1` [2g, (2E)-N-(4-Chlorophenyl)-3-[4-(trifluoromethyl)phenyl]prop-2-enamide]: 185 to 187 °C and 0.8054.
`O=C(/C=C/c1cccc(C(F)(F)F)c1)Nc1cccc(C(F)(F)F)c1` [1i, (2E)-N,3-bis[3-(Trifluoromethyl)phenyl]prop-2-enamide] had a log k in data set [1] of 0.8807. Further, the MIC amounted to 11.1 µM (≈ 3.99 µg/mL) in data set [2]; 11.1 µM (≈ 3.99 µg/mL) in [3]; 2.78 µM (≈ 0.999 µg/mL) in data set [4]; 2.78 µM (≈ 0.999 µg/mL) in data set [5]; 11.1 µM (≈ 3.99 µg/mL) in data set [6]. Further, the MBC in data set [7] is 22.3 µM (≈ 8.01 µg/mL); in data set [8], 11.1 µM (≈ 3.99 µg/mL); in data set [9], 2.78 µM (≈ 0.999 µg/mL); in data set [10], 22.3 µM (≈ 8.01 µg/mL). The molecule also came in with an IC50 in data set [11] of over 10 µM. The “Conc.: lowest multiple of MIC with at least 70% inhibition of respiratory activity” value in data set [12] is reported as 1 × MIC. Besides, in [12], the “Conc.: the same concentration as multiple of MBC” value is on record as 0.5 × MBC.
`O=C(/C=C/c1ccc(C(F)(F)F)cc1)Nc1cccc(Cl)c1` [2f, (2E)-N-(3-Chlorophenyl)-3-[4-(trifluoromethyl)phenyl]prop-2-enamide] gave a melting point of 150 to 152 °C. The molecule also gave a log k in [1] of 0.8095.
Taken in the same sequence, the figures for `O=C(/C=C/c1ccc(C(F)(F)F)cc1)Nc1ccc(C(F)(F)F)cc1` [2j, (2E)-N,3-bis[4-(Trifluoromethyl)phenyl]prop-2-enamide] were 192 to 194 °C and 0.9319.
`O=C(/C=C/c1ccc(C(F)(F)F)cc1)Nc1ccccc1F` [2b, (2E)-N-(2-Fluorophenyl)-3-[4-(trifluoromethyl)phenyl]prop-2-enamide] came in with a melting point of 164 to 166 °C. Also, in [1], the log k is on record as 0.5515.
Molecule `O=C(/C=C/c1ccc(C(F)(F)F)cc1)Nc1ccc(Cl)cc1Cl` [2m, (2E)-N-(2,4-Dichlorophenyl)-3-[4-(trifluoromethyl)phenyl]prop-2-enamide] had a melting point of 188 to 190 °C. In data set [1], this molecule had a log k of 0.9735.
As for `O=C(/C=C/c1ccc(C(F)(F)F)cc1)Nc1ccc(F)cc1F` [2k, (2E)-N-(2,4-Difluorophenyl)-3-[4-(trifluoromethyl)phenyl]prop-2-enamide], the melting point was in the range of 141 to 143 °C. In addition, in data set [1], the log k stood at 0.6011.
`O=C(/C=C/c1cccc(C(F)(F)F)c1)Nc1ccccc1` [1a, (2E)-N-Phenyl-3-[3-(trifluoromethyl)phenyl]prop-2-enamide] had a log k in data set [1] of 0.5234.
On to `O=C(/C=C/c1cccc(C(F)(F)F)c1)Nc1ccccc1Cl` [1e, (2E)-N-(2-Chlorophenyl)-3-[3-(trifluoromethyl)phenyl]prop-2-enamide], for which the melting point was in the range of 118 to 120 °C. In data set [1], this molecule came in with a log k of 0.6568.
For the molecule `O=C(/C=C/c1ccc(C(F)(F)F)cc1)Nc1ccc(F)cc1` [2d, (2E)-N-(4-Fluorophenyl)-3-[4-(trifluoromethyl)phenyl]prop-2-enamide], the melting point is 149 to 151 °C. This molecule displayed a log k in data set [1] of 0.5887.
